Measured values as given in patent US11253479B2, “Hydrobromide salt of an anti-HIV compound” (Janssen Sciences Ireland UC, priority 2006, dated 2022).

Experiments:
[1] = In-vivo study of bioavailability in dogs of capsules filled with salts
Experimental: Four male dogs were used per tested formulation. The animals were randomized over the test groups by a computer-generated random algorithm according to body weight, with all animals within ±20% of the sex mean. A health inspection was performed prior to commencement of treatment to ensure that the animals were in a good state of health. The dogs were subjected to an acclimatization period of at least 5 days before the start of treatment under laboratory conditions. A controlled environment was maintained in the room. The animals were dosed once orally with the formulations of example 1, and blood was collected from all animals under light ether anaesthesia at regular intervals for a period of 12, 24 or 48 hours after dosing.
The mean pharmacokinetic parameters relating to the mean plasma concentration with time of each test formulation are shown in Table 3. The standard deviation, where calculated, is shown between brackets.

[2] = Stability of salts of compound (A) (decomposition to compound (A) and free acid); type: physicochemical; details: partial or complete decomposition to compound (A) and the free acid
Description: Contrary to a number of other salts of compound (A) that are unstable, the compound of formula (I) is a stable salt.

[3] = male dogs, dosed once orally, capsules, dose normalized to 1 mg/kg, mean

- Tmax ([1]; dog, plasma, po, 118.6 mg salt per capsule, male dogs, dosed once orally, capsules of example 1, mean): 4.5 h
- Cmax ([1]; dog, plasma, po, 118.6 mg salt per capsule, male dogs, dosed once orally, capsules, without dose normalization, mean): 366 ng/mL
- AUC(0-t) ([1]; dog, plasma, po, 118.6 mg salt per capsule, male dogs, dosed once orally, capsules, without dose normalization, mean, read-out: AUC0-last (without dose normalization)): 5860 ng·h/mL
- bioavailability in dogs compared with other salts (Cmax, AUC0-last) ([1]; dogs, oral capsules): improved bioavailability
- tlast ([1]; male dogs, dosed once orally, capsules of example 1, mean): 48 h
- AUC0-last (dose normalized to 1 mg/kg) [1, 3]: 516.1 ng·h/mL
- Cmax (dose normalized to 1 mg/kg) [1, 3]: 31.73 ng/mL
- stability of the salt [2]: stable
Compound: Br.Cc1cc(C#N)cc(C)c1Oc1nc(Nc2ccc(C#N)cc2)nc(N)c1Br [HBr salt, 4-[[4-amino-5-bromo-6-(4-cyano-2,6-dimethylphenyloxy)-2-pyrimidinyl]amino]benzonitrile hydrobromide]
